The target of one assay is human PDE1B enzyme (Homo sapiens (Human), UniProt Q01064). Kind of assay: IMAP TR-FRET PDE1B enzymatic assay. Type of assay: biochemical. The following applies: negative log of half-maximal molar inhibitory concentration; 200 nM FAM-cAMP; values given as bins. An outline of the steps: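 Full-length GST-tagged human PDE1B (250 pg/well) in IMAP BSA buffer with 10 U/ml calmodulin and 2.5 mM CaCl2; compound pre-incubated 5 min at room temperature, then 200 nM (final) FAM-cAMP for 30 min. IMAP binding reagent/Tb added, 1 h; TR-FRET 520/490 ratio read. IC50 from sigmoidal dose-response fit.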
On the technique in general: TR-FRET usually uses a lanthanide donor and a delayed reading to cut background.
On to `Cc1oc2ncnc(NC3(C)CC3)c2c1C(=O)NCCCN1CCCC1` [Example 752, 6-Methyl-4-[(1-methylcyclopropyl)amino]-N-[3-(pyrrolidin-1-yl)propyl]furo[2,3-d]pyrimidine-5-carboxamide], for which the “PDE1b (pIC50)” value was under 6.
In the case of `Cc1oc2ncnc(NC3(C)CC3)c2c1C(=O)N1CCc2c(ncnc2NC(C)C)C1` [Example 762, 6-Methyl-N-(1-methylcyclopropyl)-5-f{4-[(propan-2-yl)amino]-5H,6H,7H,8H-pyrido[3,4-d]pyrimidine-7-carbonyl}furo[2,3-d]pyrimidin-4-amine], the “PDE1b (pIC50)” value is given as over 8.
With `Cc1oc2ncnc(NC3(C)CC3)c2c1C(=O)N1CCc2c(OCF)ccnc2C1` [Example 763, 5-[4-(Fluoromethoxy)-5,6,7,8-tetrahydro-1,7-naphthyridine-7-carbonyl]-6-methyl-N-(1-methylcyclopropyl)furo[2,3-d]pyrimidin-4-amine], the “PDE1b (pIC50)” value is over 8.
Turning to `Cc1oc2ncnc(NC3(C)CC3)c2c1C(=O)N1CCc2c(cccc2OCF)C1` [Example 764, 5-[5-(Fluoromethoxy)-1,2,3,4-tetrahydroisoquinoline-2-carbonyl]-6-methyl-N-(1-methylcyclopropyl)furo[2,3-d]pyrimidin-4-amine], the “PDE1b (pIC50)” value is over 8.
Same read-out and setting: the result for `Cc1oc2ncnc(NC3(C)CC3)c2c1C(=O)N1CCc2cc(OCF)ccc2C1` [Example 765, 5-[6-(Fluoromethoxy)-1,2,3,4-tetrahydroisoquinoline-2-carbonyl]-6-methyl-N-(1-methylcyclopropyl)furo[2,3-d]pyrimidin-4-amine] reads over 8; that for `Cc1oc2ncnc(NC3(C)CC3)c2c1C(=O)N1CCc2ccc(OCF)cc2C1C` (stereo not drawn) [Example 772, 5-[7-(Fluoromethoxy)-1-methyl-1,2,3,4-tetrahydroisoquinoline-2-carbonyl]-6-methyl-N-(1-methylcyclopropyl)furo[2,3-d]pyrimidin-4-amine], over 8.
`Cc1oc2ncnc(NC3(C)CC3)c2c1C(=O)N1CC=C(c2nccc(C#N)n2)CC1` [Example 775, 2-(1-{6-Methyl-4-[(1-methylcyclopropyl)amino]furo[2,3-d]pyrimidine-5-carbonyl}-1,2,3,6-tetrahydropyridin-4-yl)pyrimidine-4-carbonitrile]: the “PDE1b (pIC50)” value is reported as over 8.
For the molecule `Cc1oc2ncnc(NC3(C)CC3)c2c1C(=O)N1CCC(c2ccn(C)n2)CC1` [Example 776, 6-Methyl-5-[4-(1-methyl-1H-pyrazol-3-yl)piperidine-1-carbonyl]-N-(1-methylcyclopropyl)furo[2,3-d]pyrimidin-4-amine], the “PDE1b (pIC50)” value is over 8.
`Cc1oc2ncnc(NC3(C)CC3)c2c1C(=O)N1CCC(c2cc(C)n(C)n2)CC1` [Example 779, 5-[4-(1,5-Dimethyl-1H-pyrazol-3-yl)piperidine-1-carbonyl]-6-methyl-N-(1-methylcyclopropyl)furo[2,3-d]pyrimidin-4-amine]: the “PDE1b (pIC50)” value is listed as over 8.
Take `Cc1oc2ncnc(NC3(C)CC3)c2c1C(=O)N1CC=C(c2cnc(F)s2)CC1` [Example 783, 5-[4-(2-Fluoro-1,3-thiazol-5-yl)-1,2,3,6-tetrahydropyridine-1-carbonyl]-6-methyl-N-(1-methylcyclopropyl)furo[2,3-d]pyrimidin-4-amine]: the “PDE1b (pIC50)” value is over 8.

The same assay, now with this note: negative log of half-maximal molar inhibitory concentration; 200 nM FAM-cAMP; values given as bins; read-out: PDE1b (pIC50) (converted).
Regarding `Cc1oc2ncnc(NC3(C)CC3)c2c1C(=O)Nc1ccc(N2CCOCC2)nc1` [Example 753, 6-Methyl-4-[(1-methylcyclopropyl)amino]-N-[6-(morpholin-4-yl)pyridin-3-yl]furo[2,3-d]pyrimidine-5-carboxamide], the IC50 is 100 to 1000 nM.
For the molecule `Cc1oc2ncnc(NC3(C)CC3)c2c1C(=O)NCCC(F)(F)F` [Example 754, 6-Methyl-4-[(1-methylcyclopropyl)amino]-N-(3,3,3-trifluoropropyl)furo[2,3-d]pyrimidine-5-carboxamide], the IC50 was 10 to 100 nM.
On the same count and under the same terms, the result for `Cc1oc2ncnc(NC3(C)CC3)c2c1C(=O)NCC1CC1(F)F` (stereo not drawn) [Example 755, N-[(2,2-Difluorocyclopropyl)methyl]-6-methyl-4-[(1-methylcyclopropyl)amino]furo[2,3-d]pyrimidine-5-carboxamide] reads 10 to 100 nM.
As to `Cc1oc2ncnc(NC3(C)CC3)c2c1C(=O)NCCN=S(C)(C)=O` [Example 756, N-(2-{[Dimethyl(oxo)-λ^6-sulfanylidene]amino}ethyl)-6-methyl-4-[(1-methylcyclopropyl)amino]furo[2,3-d]pyrimidine-5-carboxamide], the IC50 was 100 to 1000 nM.
On the same count and under the same terms, under `Cc1oc2ncnc(NC3(C)CC3)c2c1C(=O)Nc1cnc(N2C[C@@H](C)O[C@@H](C)C2)nc1` [Example 759, N-{2-[(2R,6S)-2,6-Dimethylmorpholin-4-yl]pyrimidin-5-yl}-6-methyl-4-[(1-methylcyclopropyl)amino]furo[2,3-d]pyrimidine-5-carboxamide] stands 100 to 1000 nM.
Still for that read-out and setting: under `Cc1coc(CNC(=O)c2c(C)oc3ncnc(NC4(C)CC4)c23)n1` [Example 760, 6-Methyl-N-[(4-methyl-1,3-oxazol-2-yl)methyl]-4-[(1-methylcyclopropyl)amino]furo[2,3-d]pyrimidin-5-carboxamide] stands 10 to 100 nM; under `Cc1oc2ncnc(NC3(C)CC3)c2c1C(N)=O` [Example 761, 6-Methyl-4-[(1-methylcyclopropyl)amino]furo[2,3-d]pyrimidin-5-carboxamide], 100 to 1000 nM.
Still for that read-out and setting: under `Cc1oc2ncnc(NC3(C)CC3)c2c1C(=O)N1CCc2cccc(OCF)c2C1` [Example 766, 5-[8-(Fluoromethoxy)-1,2,3,4-tetrahydroisoquinoline-2-carbonyl]-6-methyl-N-(1-methylcyclopropyl)furo[2,3-d]pyrimidin-4-amine] stands 10 to 100 nM.
As for `Cc1oc2ncnc(NC3(C)CC3)c2c1C(=O)N1CCc2ccc(OCF)cc2C1` [Example 767, 5-[7-(Fluoromethoxy)-1,2,3,4-tetrahydroisoquinoline-2-carbonyl]-6-methyl-N-(1-methylcyclopropyl)furo[2,3-d]pyrimidin-4-amine], the IC50 was 10 to 100 nM.
Same read-out and setting: the result for `Cc1oc2ncnc(NC3(C)CC3)c2c1C(=O)N1CCc2ncc(OCF)cc2C1` [Example 768, 5-[3-(Fluoromethoxy)-5,6,7,8-tetrahydro-1,6-naphthyridine-6-carbonyl]-6-methyl-N-(1-methylcyclopropyl)furo[2,3-d]pyrimidin-4-amine] reads 10 to 100 nM.
For `Cc1oc2ncnc(NC3(C)CC3)c2c1C(=O)N1CCc2c(ccnc2OCF)C1` [Example 769, 5-[5-(Fluoromethoxy)-1,2,3,4-tetrahydro-2,6-naphthyridine-2-carbonyl]-6-methyl-N-(1-methylcyclopropyl)furo[2,3-d]pyrimidin-4-amine], the IC50 was 10 to 100 nM.
On the same count and under the same terms, the result for `Cc1oc2ncnc(NC3(C)CC3)c2c1C(=O)N1CCC(c2ncc(OCF)cn2)CC1` [Example 770, 5-{4-[5-(Fluoromethoxy)pyrimidin-2-yl]piperidine-1-carbonyl}-6-methyl-N-(1-methylcyclopropyl)furo[2,3-d]pyrimidin-4-amine] reads 10 to 100 nM.
On the same count and under the same terms, the result for `Cc1oc2ncnc(NC3(C)CC3)c2c1C(=O)N1CCC(c2ccc(OCF)cc2)C1` (stereo not drawn) [Example 771, 5-{3-[4-(Fluoromethoxy)phenyl]pyrrolidine-1-carbonyl}-6-methyl-N-(1-methylcyclopropyl)furo[2,3-d]pyrimidin-4-amine] reads 10 to 100 nM.
Take `COCc1nc2c(c(OCF)n1)CCN(C(=O)c1c(C)oc3ncnc(NC4(C)CC4)c13)C2` [Example 773, 5-[4-(Fluoromethoxy)-2-(methoxymethyl)-5H,6H,7H,8H-pyrido[3,4-d]pyrimidine-7-carbonyl]-6-methyl-N-(1-methylcyclopropyl)furo[2,3-d]pyrimidin-4-amine]: the IC50 was 10 to 100 nM.
Same read-out and setting: under `Cc1oc2ncnc(NC3(C)CC3)c2c1C(=O)N1CC=C(c2ncc(F)cn2)C1` [Example 774, 5-[3-(5-Fluoropyrimidin-2-yl)-2,5-dihydro-1H-pyrrole-1-carbonyl]-6-methyl-N-(1-methylcyclopropyl)furo[2,3-d]pyrimidin-4-amine] stands 10 to 100 nM; under `Cc1oc2ncnc(NC3(C)CC3)c2c1C(=O)N1CCC(c2ncn(C)n2)CC1` [Example 777, 6-Methyl-5-[4-(1-methyl-1H-1,2,4-triazol-3-yl)piperidine-1-carbonyl]-N-(1-methylcyclopropyl)furo[2,3-d]pyrimidin-4-amine], 10 to 100 nM.
Still for that read-out and setting: under `Cc1oc2ncnc(NC3(C)CC3)c2c1C(=O)N1CCC(c2cn(C)nn2)CC1` [Example 778, 6-Methyl-5-[4-(1-methyl-1H-1,2,3-triazol-4-yl)piperidine-1-carbonyl]-N-(1-methylcyclopropyl)furo[2,3-d]pyrimidin-4-amine] stands 10 to 100 nM; under `Cc1nc(C)c(C2CCN(C(=O)c3c(C)oc4ncnc(NC5(C)CC5)c34)CC2)[nH]1` [Example 780, 5-[4-(2,4-Dimethyl-1H-imidazol-5-yl)piperidine-1-carbonyl]-6-methyl-N-(1-methylcyclopropyl)furo[2,3-d]pyrimidin-4-amine], 100 to 1000 nM; under `Cc1oc2ncnc(NC3(C)CC3)c2c1C(=O)N1CCC(c2ccn(C(C)C)n2)CC1` [Example 781, 6-Methyl-N-(1-methylcyclopropyl)-5-{4-[1-(propan-2-yl)-1H-pyrazol-3-yl]piperidine-1-carbonyl}furo[2,3-d]pyrimidin-4-amine], 10 to 100 nM.
Same read-out and setting: under `Cc1oc2ncnc(NC3(C)CC3)c2c1C(=O)N1CCC(c2cnn(C)c2)CC1` [Example 782, 6-Methyl-5-[4-(1-methyl-1H-pyrazol-4-yl)piperidine-1-carbonyl]-N-(1-methylcyclopropyl)furo[2,3-d]pyrimidin-4-amine] stands 10 to 100 nM.
